Our source for the IC50 values is patent US8461329B2, “Isoquinoline derivative” (Taisho Pharmaceutical Co., Ltd., priority 2008, dated 2013).

pIC50: −log10 of the molar value. Read-outs that look alike come from different tables or passages of the source.

Experiment [1] deals with T1, human CRTH2 expression cell KB8 (Homo sapiens, UniProt Q9Y5Y4).
T1 construct: host or cells: KB8 cells (human CRTH2 expression cell)
T1 sequence (Q9Y5Y4 1-395): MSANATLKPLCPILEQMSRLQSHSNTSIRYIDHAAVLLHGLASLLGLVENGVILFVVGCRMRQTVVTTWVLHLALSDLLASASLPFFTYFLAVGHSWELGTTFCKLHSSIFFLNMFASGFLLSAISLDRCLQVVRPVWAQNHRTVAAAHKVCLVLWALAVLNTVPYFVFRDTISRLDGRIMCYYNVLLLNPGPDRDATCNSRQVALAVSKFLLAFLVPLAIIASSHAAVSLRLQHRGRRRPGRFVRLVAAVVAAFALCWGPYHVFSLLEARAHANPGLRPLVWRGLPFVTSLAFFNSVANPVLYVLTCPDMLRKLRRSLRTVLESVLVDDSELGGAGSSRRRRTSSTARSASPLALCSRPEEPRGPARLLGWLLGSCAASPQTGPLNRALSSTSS
Kind of experiment: CRTH2 binding test (3H-PGD2 binding to KB8 cells). As to conditions: 3H-PGD2 5 nM, 4° C., one hour. On the procedure: CRTH2 binding inhibitory activity of the compound of the present invention was considered by using a binding test between human CRTH2 expression cell KB8 (BML, INC.) and ^3H-labeled prostaglandin D2 (hereinafter, abbreviated as ^3H-PGD2, manufactured by GE Healthcare).
KB8 was suspended in a reaction buffer solution (Hank's balanced salt solution (Invitrogen) containing 10 mM HEPES (Invitrogen)), which was dispensed in a 96 well plate (Coaster) so that 2×10^5 cells/well are placed. Furthermore, the compound of the present invention and ^3H-PGD2 (final concentration: 5 nM) were added, stirred, and incubated at 4° C.
One hour later, cells were collected on GF/C Filter Plate (PerkinElmer) that had been pre-coated with 0.5% polyethyleneimine solution (SIGMA) by using a Cell Harvester (Packard BioScience), and the radioactivity of the cells was measured by using Top count NXT (PerkinElmer) (a value measured herein was represented by a measurement value “a”). The same procedure was carried out in the absence of the compound, and a measurement value “b” was obtained; and the same procedure was carried out in the absence of the compound and in the presence of non-labeled PGD2 (final concentration: 50 μM), a measurement value “c” was obtained.
The binding inhibition rate of the compound was calculated by the following calculation formula: Bonding inhibitory rate(%)=[1−(a−c)/(b−c)]×100
That is to say, by using binding inhibition rates of compounds to be tested having various concentrations, the IC50 value was calculated according to a dose-dependent inhibition curve analyzed by using XLfit (IDBS) as a data analysis software, and the calculated value was defined as an indicator of the inhibitory activity. In Table 9, A denotes an inhibitory activity showing the IC50 value of less than 50 nM; B denotes an inhibitory activity showing the IC50 value of 50 nM or greater and less than 500 nM; C denotes an inhibitory activity showing the IC50 value of 500 nM or greater and less than 1000 nM; and D denotes an inhibitory activity showing the IC50 value of 1000 nM or greater.

Experiment [2] has as its target T2, CRTH2 (KB8 cells) (Homo sapiens, UniProt Q9Y5Y4).
T2 construct: host or cells: KB8 cells (human CRTH2 expression cell)
T2 sequence (Q9Y5Y4 1-395): T1 sequence (Q9Y5Y4 1-395)
Description: CRTH2 antagonist test (PGD2-induced intracellular calcium ion concentration increase in KB8 cells). Type of experiment: cell-based. The method, boiled down: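 Fluo-4-AM-loaded KB8 cells in HBSS with 10 mM HEPES and 1 mM CaCl2 received compound plus PGD2 (final 100 nM); peak fluorescence followed over time. Inhibition was computed against no-compound and unlabelled-PGD2 controls, and IC50 obtained from a dose-response curve.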
A general note: Calcium assays in cells follow changes in intracellular calcium, usually with a dye or a luminescent sensor.

Setting [3] is: IC50 class, read-out: binding inhibitory activity.
Setting [4] is: PGD2 final concentration 100 nM, Fluo-4-AM fluorescence, read-out: antagonist activity (IC50 value, inhibition of calcium ion concentration increase).

Turning to `O=C(O)Cc1cnc(C(=O)c2ccc(NC(=O)NCc3ccc(Cl)c(Cl)c3)cc2)c2ccccc12` [Example 132, {1-[(4-{[(3,4-dichlorobenzyl)carbamoyl]amino}phenyl)carbonyl]isoquinolin-4-yl}acetic acid], the results for the pIC50 in experiment [1] (setting [3]) and in experiment [2] (setting [4]) were greater than 7.30 and 6.30 to 7.30, respectively.

As for `O=C(O)Cc1cnc(C(=O)c2ccc(NCc3ccc(Cl)c(Cl)c3)cc2)c2ccccc12` [Example 133, [1-({4-[(3,4-dichlorobenzyl)amino]phenyl}carbonyl)isoquinolin-4-yl]acetic acid], the pIC50 in experiment [1] (setting [3]) and in experiment [2] (setting [4]) was greater than 7.30 each time.

With `O=C(O)Cc1cnc(C(=O)c2ccc(OCc3ccc(Cl)c(Cl)c3)cc2)c2ccccc12` [Example 134, [1-({4-[(3,4-dichlorobenzyl)oxy]phenyl}carbonyl)isoquinolin-4-yl]acetic acid], the pIC50 was greater than 7.30 in experiment [1] (setting [3]) and 6.30 to 7.30 in experiment [2] (setting [4]).

`O=C(O)Cc1cnc(C(=O)c2ccc(C(=O)NCCc3ccc(Cl)cc3)cc2)c2ccccc12` [Example 135, {1-[(4-{[2-(4-chlorophenyl)ethyl]carbamoyl}phenyl)carbonyl]isoquinolin-4-yl}acetic acid]: the pIC50 in experiment [1] (setting [3]) and in experiment [2] (setting [4]) was greater than 7.30 in each case.

As to `O=C(O)Cc1cnc(C(=O)c2ccc(C(=O)Nc3ccc(Cl)c(Cl)c3)cc2)c2ccccc12` [Example 136], the pIC50 in experiment [1] (setting [3]) and in experiment [2] (setting [4]) was greater than 7.30 in each case.

As to `O=C(O)Cc1cnc(C(=O)c2ccc(C(=O)NCCc3ccc(Cl)c(Cl)c3)cc2)c2ccccc12` [Example 137], the pIC50 in experiment [1] (setting [3]) and in experiment [2] (setting [4]) was greater than 7.30 each time.

Turning to `COc1ccc(CCNC(=O)c2ccc(C(=O)c3ncc(CC(=O)O)c4ccccc34)cc2)cc1` [Example 138], the pIC50 in experiment [1] (setting [3]) and in experiment [2] (setting [4]) was greater than 7.30 throughout.

On to `O=C(O)Cc1cnc(C(=O)c2ccc(C(=O)NCCc3cccc(Cl)c3)cc2)c2ccccc12` [Example 139], for which the pIC50 in experiment [1] (setting [3]) and in experiment [2] (setting [4]) was greater than 7.30 each time.

As to `O=C(O)Cc1cnc(C(=O)c2ccc(OCCc3ccc(Cl)cc3)cc2)c2ccccc12` [Example 141, [1-({4-[2-(4-chlorophenyl)ethoxy]phenyl}carbonyl)isoquinolin-4-yl]acetic acid], the figures for the pIC50 in experiment [1] (setting [3]) and in experiment [2] (setting [4]) were greater than 7.30 and 6.30 to 7.30, respectively.

Regarding `O=C(O)Cc1cnc(C(=O)c2ccc(OCCCc3ccc(Cl)cc3)cc2)c2ccccc12` [Example 142], the pIC50 in experiment [1] (setting [3]) was greater than 7.30; in experiment [2] (setting [4]), 6.30 to 7.30.

`O=C(O)Cc1cnc(C(=O)c2ccc(OCCOc3ccc(Cl)cc3)cc2)c2ccccc12` [Example 143]: the values for the pIC50 in experiment [1] (setting [3]), in experiment [1] (read-out: CRTH2 binding inhibitory activity IC50 value) and in experiment [2] (setting [4]) were greater than 7.30, 8.00 and 6.30 to 7.30, respectively.

In the case of `O=C(O)Cc1cnc(Cc2ccc(NC(=O)c3ccc(Cl)c(Cl)c3)cc2)c2ccccc12` [Example 148, [1-(4-{[(3,4-dichlorophenyl)carbonyl]amino}benzyl)isoquinolin-4-yl]acetic acid], the pIC50 in experiment [1] (setting [3]) and in experiment [2] (setting [4]) was greater than 7.30 throughout.

For the compound `O=C(O)Cc1cnc(Cc2ccc(C(=O)NCCc3ccc(Cl)cc3)cc2)c2ccccc12` [Example 153, [1-(4-{[2-(4-chlorophenyl)ethyl]carbamoyl}benzyl)isoquinolin-4-yl]acetic acid], the pIC50 in experiment [1] (setting [3]) is greater than 7.30; in experiment [2] (PGD2 100 nM, Fluo-4 calcium fluorescence, read-out: CRTH2 antagonist activity IC50 value) it was 7.92; in experiment [2] (setting [4]), greater than 7.30.
